Test results: PubChem BioAssay (NCI)
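Cells were grown in 96-well plates and exposed to each compound for 48 hours at five concentrations; endpoints were interpolated linearly between bracketing concentrations, or set to the highest concentration if not reached. GI50 marks 50% less growth. At the TGI there is no net growth.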

Key:
Assay in all cases: growth of human tumour cells (NCI), 48 h
[1] = test system: CAKI-1 renal
[2] = test system: K-562 leukemia
[3] = test system: T-47D breast
[4] = test system: ACHN renal
[5] = test system: BT-549 breast
[6] = test system: COLO 205 colon
[7] = test system: SN12C renal
[8] = test system: DU-145 prostate
[9] = test system: NCI-H226 lung
[10] = test system: MCF7 breast
[11] = test system: SK-MEL-5 melanoma
[12] = test system: OVCAR-5 ovarian
[13] = test system: SK-MEL-2 melanoma
[14] = test system: MDA-MB-435
[15] = test system: RPMI-8226 leukemia
[16] = test system: PC-3 prostate
[17] = test system: CCRF-CEM leukemia
[18] = test system: SK-MEL-28 melanoma
[19] = test system: HCC-2998 colon
[20] = test system: IGROV1 ovarian
[21] = test system: SF-295 CNS
[22] = test system: HCT-15 colon
[23] = test system: NCI/ADR-RES ovarian
[24] = test system: SK-OV-3 ovarian
[25] = test system: UACC-62 melanoma
[26] = test system: TK-10 renal
[27] = test system: MOLT-4 leukemia
[28] = test system: EKVX NSCLC
[29] = test system: HCT-116 colon
[30] = test system: SF-268 CNS
[31] = test system: NCI-H460 lung
[32] = test system: MDA-MB-231 breast
[33] = test system: M14 melanoma
[34] = test system: OVCAR-8 ovarian
[35] = test system: HS 578T breast
[36] = test system: HOP-92 NSCLC
[37] = test system: LOX IMVI melanoma
[38] = test system: UACC-257 melanoma
[39] = test system: HT29 colon
[40] = test system: NCI-H522 lung
[41] = test system: OVCAR-4 ovarian
[42] = test system: SF-539 CNS
[43] = test system: HOP-62 NSCLC
[44] = test system: 786-0 renal
[45] = test system: U251 CNS
[46] = test system: KM12 colon
[47] = test system: SW-620 colon
[48] = test system: HL-60(TB) leukemia
[49] = test system: SNB-75 CNS
[50] = test system: NCI-H23 lung
[51] = test system: A498 renal
[52] = test system: RXF 393 renal
[53] = test system: UO-31 renal
[54] = test system: SNB-19 CNS
[55] = test system: MALME-3M melanoma
[56] = test system: A549 NSCLC

C#Cc1nc(C(=O)NCCCCCCC(=O)NO)cs1
GI50 [1]: 997 nM
TGI [1]: 2310 nM
GI50 [2]: 639 nM
TGI [2]: > 100000 nM
GI50 [3]: 288 nM
TGI [3]: 1540 nM
GI50 [4]: 897 nM
TGI [4]: 2190 nM
GI50 [5]: 1470 nM
TGI [5]: 2850 nM
GI50 [6]: 691 nM
TGI [6]: 2000 nM
GI50 [7]: 1620 nM
TGI [7]: 5250 nM
GI50 [8]: 367 nM
TGI [8]: 1440 nM
GI50 [9]: 1740 nM
TGI [9]: 6490 nM
GI50 [10]: 939 nM
TGI [10]: 7250 nM
GI50 [11]: 642 nM
TGI [11]: 2180 nM
GI50 [12]: 1030 nM
TGI [12]: 3580 nM
GI50 [13]: 1250 nM
TGI [13]: 3540 nM
GI50 [14]: 692 nM
TGI [14]: 3450 nM
GI50 [15]: 312 nM
TGI [15]: 1550 nM
GI50 [16]: 1830 nM
TGI [16]: 10100 nM
GI50 [17]: 284 nM
TGI [17]: 994 nM
GI50 [18]: 1210 nM
TGI [18]: 5100 nM
GI50 [19]: 1710 nM
TGI [19]: 4430 nM
GI50 [20]: 572 nM
TGI [20]: 2150 nM
GI50 [21]: 983 nM
TGI [21]: 2420 nM
GI50 [22]: 1470 nM
TGI [22]: 3840 nM
GI50 [23]: 335 nM
TGI [23]: > 100000 nM
GI50 [24]: 1470 nM
TGI [24]: 4010 nM
GI50 [25]: 433 nM
TGI [25]: 2050 nM
GI50 [26]: 263 nM
TGI [26]: 1530 nM
GI50 [27]: 294 nM
TGI [27]: 1200 nM
GI50 [28]: 1550 nM
TGI [28]: 3190 nM
GI50 [29]: 339 nM
TGI [29]: 1560 nM
GI50 [30]: 1530 nM
TGI [30]: 3440 nM
GI50 [31]: 587 nM
TGI [31]: 7250 nM
GI50 [32]: 318 nM
TGI [32]: 1100 nM
GI50 [33]: 1220 nM
TGI [33]: 4030 nM
GI50 [34]: 405 nM
TGI [34]: 2110 nM
GI50 [35]: 718 nM
TGI [35]: 4050 nM
GI50 [36]: 571 nM
TGI [36]: 1810 nM
GI50 [37]: < 14.9 nM
TGI [37]: 53 nM
GI50 [38]: 393 nM
TGI [38]: 2840 nM
GI50 [39]: 782 nM
TGI [39]: 2440 nM
GI50 [40]: 168 nM
TGI [40]: 353 nM
GI50 [41]: 1800 nM
TGI [41]: 5120 nM
GI50 [42]: 794 nM
TGI [42]: 2240 nM
GI50 [43]: 1120 nM
TGI [43]: 3070 nM
GI50 [44]: 294 nM
TGI [44]: 838 nM
GI50 [45]: 1120 nM
TGI [45]: 2390 nM
GI50 [46]: 1390 nM
TGI [46]: 3600 nM
GI50 [47]: 346 nM
TGI [47]: 1820 nM
GI50 [48]: 314 nM
TGI [48]: 805 nM
GI50 [49]: 714 nM
TGI [49]: 3340 nM
GI50 [50]: 780 nM
TGI [50]: 2220 nM
GI50 [51]: 528 nM
TGI [51]: 1780 nM
GI50 [52]: 392 nM
TGI [52]: 1390 nM
GI50 [53]: 174 nM
TGI [53]: 332 nM
GI50 [54]: 2210 nM
TGI [54]: 10000 nM
GI50 [55]: 314 nM
TGI [55]: 1610 nM

O=C(/C=C/c1csc(Br)n1)NO
GI50 [1]: 2350 nM
TGI [1]: 7220 nM
GI50 [2]: 2610 nM
TGI [2]: 15400 nM
GI50 [3]: 2030 nM
TGI [3]: 5630 nM
GI50 [4]: 2360 nM
TGI [4]: 6990 nM
GI50 [5]: 3840 nM
TGI [5]: 16500 nM
GI50 [6]: 1750 nM
TGI [6]: 3360 nM
GI50 [7]: 3840 nM
TGI [7]: > 100000 nM
GI50 [8]: 3160 nM
TGI [8]: 23100 nM
GI50 [9]: 5220 nM
TGI [9]: 20000 nM
GI50 [10]: 3000 nM
TGI [10]: 16700 nM
GI50 [11]: 1820 nM
TGI [11]: 3500 nM
GI50 [12]: 2250 nM
TGI [12]: > 100000 nM
GI50 [13]: 2620 nM
TGI [13]: 7260 nM
GI50 [14]: 2880 nM
TGI [14]: 15300 nM
GI50 [15]: 2640 nM
TGI [15]: 18800 nM
GI50 [16]: 3170 nM
TGI [16]: 17600 nM
GI50 [17]: 2730 nM
TGI [17]: > 100000 nM
GI50 [18]: 3460 nM
TGI [18]: > 100000 nM
GI50 [19]: 3290 nM
TGI [19]: 11600 nM
GI50 [20]: 2060 nM
TGI [20]: 5250 nM
GI50 [21]: 2510 nM
TGI [21]: 6350 nM
GI50 [22]: 3170 nM
TGI [22]: > 100000 nM
GI50 [23]: 1570 nM
TGI [23]: 8360 nM
GI50 [24]: 1770 nM
TGI [24]: 5090 nM
GI50 [25]: 1250 nM
TGI [25]: 3200 nM
GI50 [26]: 1410 nM
TGI [26]: 6180 nM
GI50 [27]: 2300 nM
TGI [27]: 10200 nM
GI50 [28]: 4230 nM
TGI [28]: > 100000 nM
GI50 [29]: 1830 nM
TGI [29]: 4510 nM
GI50 [30]: 3220 nM
TGI [30]: 9290 nM
GI50 [31]: 2810 nM
TGI [31]: 41500 nM
GI50 [32]: 3510 nM
TGI [32]: 21200 nM
GI50 [33]: 3300 nM
TGI [33]: 17700 nM
GI50 [34]: 2190 nM
TGI [34]: 8330 nM
GI50 [35]: 2050 nM
TGI [35]: 8660 nM
GI50 [36]: 1300 nM
TGI [36]: 3950 nM
GI50 [37]: 1310 nM
TGI [37]: 2690 nM
GI50 [38]: 1310 nM
TGI [38]: 4910 nM
GI50 [39]: 2310 nM
TGI [39]: > 100000 nM
GI50 [40]: 2480 nM
TGI [40]: 11200 nM
GI50 [41]: 6300 nM
TGI [41]: > 100000 nM
GI50 [42]: 3110 nM
TGI [42]: 14800 nM
GI50 [43]: 2760 nM
TGI [43]: 11500 nM
GI50 [44]: 3380 nM
TGI [44]: 34700 nM
GI50 [45]: 1900 nM
TGI [45]: 4090 nM
GI50 [46]: 3610 nM
TGI [46]: 39500 nM
GI50 [47]: 1890 nM
TGI [47]: 5520 nM
GI50 [48]: 2510 nM
TGI [48]: 6580 nM
GI50 [49]: 1830 nM
TGI [49]: 21000 nM
GI50 [50]: 3010 nM
TGI [50]: 10500 nM
GI50 [51]: 1340 nM
TGI [51]: 3210 nM
GI50 [52]: 1430 nM
TGI [52]: 3650 nM
GI50 [53]: 1700 nM
TGI [53]: 4160 nM
GI50 [54]: 3820 nM
TGI [54]: 88400 nM
GI50 [55]: 1410 nM
TGI [55]: 8290 nM
GI50 [56]: 2450 nM
TGI [56]: 8400 nM
